What was measured:
[1] = target: T1, Heat shock protein HSP90 (Homo sapiens) (UniProt P07900+P08238); assay: Inhibition of Hsp90 in human MCF7 cells assessed as proteasomal degradation of Her2 after 24 hrs by Western blot analysis; format: cell-based
[2] = target: T1, Heat shock protein HSP90 (Homo sapiens); assay: Inhibition of HSP90 in human MCF7 cells assessed as increase in expression level of Hsp70 after 24 hrs by Western blot analysis; format: cell-based
[3] = target: T1, Heat shock protein HSP90 (Homo sapiens); assay: Inhibition of Hsp90 in human MCF7 cells assessed as proteasomal degradation of EGFR after 24 hrs by Western blot analysis; format: cell-based
[4] = target: T1, Heat shock protein HSP90 (Homo sapiens); assay: Inhibition of Hsp90 in human MCF7 cells assessed as proteasomal degradation of Akt after 24 hrs by Western blot analysis; format: cell-based
[5] = target: T1, Heat shock protein HSP90 (Homo sapiens); assay: Inhibition of Hsp90 in human MCF7 cells assessed as proteasomal degradation of Cdk4 after 24 hrs by Western blot analysis; format: cell-based
[6] = target: Heat shock protein HSP 90-alpha (Homo sapiens, UniProt P07900); assay: Inhibition of FITC-labeled geldanamycin binding to human Hsp90alpha by fluorescence polarization assay
[7] = Growth inhibition of human SKBR3 cells at 10 uM after 72 hrs by MTT assay; format: functional; conditions: SK-BR-3, 72 h
[8] = Growth inhibition of human HFF1 cells at 10 uM after 72 hrs by MTT assay; format: cell-based, HFF-1
[9] = Growth inhibition of human MCF7 cells at 10 uM after 72 hrs by MTT assay; format: functional; conditions: MCF7, 72 h
[10] = Growth inhibition of human HCT116 cells at 10 uM after 72 hrs by MTT assay; format: functional; conditions: HCT-116, 72 h
cells [11] = conditions: Homo sapiens, KM12, 48 h
Description: Cytotoxicity against human KM12 cells after 48 hrs by sulforhodamine B assay

[12] = Growth inhibition of human MDA-MB-468 cells after 48 hrs by sulforhodamine B assay; format: functional; conditions: MDA-MB-468, 48 h
cells [13] = conditions: Homo sapiens, HCT-116, 48 h
Description: Cytotoxicity against human HCT116 cells after 48 hrs by sulforhodamine B assay

cells [14] = conditions: Homo sapiens, HCC 2998, 48 h
Description: Cytotoxicity against human HCC2998 cells after 48 hrs by sulforhodamine B assay

cells [15] = conditions: Homo sapiens, HCT-15, 48 h
Description: Cytotoxicity against human HCT15 cells after 48 hrs by sulforhodamine B assay

cells [16] = conditions: Homo sapiens, HOP-92, 48 h
Description: Cytotoxicity against human HOP92 cells after 48 hrs by sulforhodamine B assay

cells [17] = conditions: Homo sapiens, SF-539, 48 h
Description: Cytotoxicity against human SF539 cells after 48 hrs by sulforhodamine B assay

cells [18] = conditions: Homo sapiens, CAKI-1, 48 h
Description: Cytotoxicity against human Caki1 cells after 48 hrs by sulforhodamine B assay

cells [19] = conditions: Homo sapiens, MOLT-4, 48 h
Description: Cytotoxicity against human MOLT4 cells after 48 hrs by sulforhodamine B assay

cells [20] = conditions: Homo sapiens, DU-145, 48 h
Description: Cytotoxicity against human DU145 cells after 48 hrs by sulforhodamine B assay

cells [21] = conditions: Homo sapiens, MDA-MB-231, 48 h
Description: Cytotoxicity against human MDA-MB-231 cells after 48 hrs by sulforhodamine B assay

cells [22] = conditions: Homo sapiens, SNB-75, 48 h
Description: Cytotoxicity against human SNB75 cells after 48 hrs by sulforhodamine B assay

cells [23] = conditions: Homo sapiens, PC-3, 48 h
Description: Cytotoxicity against human PC3 cells after 48 hrs by sulforhodamine B assay

cells [24] = conditions: Homo sapiens, Malme-3M, 48 h
Description: Cytotoxicity against human MALME-3M cells after 48 hrs by sulforhodamine B assay

cells [25] = conditions: Homo sapiens, A498, 48 h
Description: Cytotoxicity against human A498 cells after 48 hrs by sulforhodamine B assay

cells [26] = conditions: Homo sapiens, NCI-H522, 48 h
Description: Cytotoxicity against human NCI-H522 cells after 48 hrs by sulforhodamine B assay

cells [27] = conditions: Homo sapiens, HOP-62, 48 h
Description: Cytotoxicity against human HOP62 cells after 48 hrs by sulforhodamine B assay

cells [28] = conditions: Homo sapiens, SW-620, 48 h
Description: Cytotoxicity against human SW620 cells after 48 hrs by sulforhodamine B assay

cells [29] = conditions: Homo sapiens, IGROV-1, 48 h
Description: Cytotoxicity against human IGROV1 cells after 48 hrs by sulforhodamine B assay

cells [30] = conditions: Homo sapiens, SF-295, 48 h
Description: Cytotoxicity against human SF295 cells after 48 hrs by sulforhodamine B assay

cells [31] = conditions: Homo sapiens, UACC-62, 48 h
Description: Cytotoxicity against human UACC62 cells after 48 hrs by sulforhodamine B assay

cells [32] = conditions: Homo sapiens, SK-MEL-28, 48 h
Description: Cytotoxicity against human SK-MEL-28 cells after 48 hrs by sulforhodamine B assay

cells [33] = conditions: Homo sapiens, NCI-H460, 48 h
Description: Cytotoxicity against human NCI-H460 cells after 48 hrs by sulforhodamine B assay

cells [34] = conditions: Homo sapiens, UO-31, 48 h
Description: Cytotoxicity against human UO31 cells after 48 hrs by sulforhodamine B assay

cells [35] = conditions: Homo sapiens, COLO 205, 48 h
Description: Cytotoxicity against human COLO205 cells after 48 hrs by sulforhodamine B assay

cells [36] = conditions: Homo sapiens, CCRF-CEM, 48 h
Description: Cytotoxicity against human CCRF-CEM cells after 48 hrs by sulforhodamine B assay

cells [37] = conditions: Homo sapiens, SK-MEL-5, 48 h
Description: Cytotoxicity against human SK-MEL-5 cells after 48 hrs by sulforhodamine B assay

cells [38] = conditions: Homo sapiens, 786-0, 48 h
Description: Cytotoxicity against human 786-0 cells after 48 hrs by sulforhodamine B assay

cells [39] = conditions: Homo sapiens, ACHN, 48 h
Description: Cytotoxicity against human ACHN cells after 48 hrs by sulforhodamine B assay

cells [40] = conditions: Homo sapiens, OVCAR-8, 48 h
Description: Cytotoxicity against human OVCAR8 cells after 48 hrs by sulforhodamine B assay

cells [41] = conditions: Homo sapiens, LOX IMVI, 48 h
Description: Cytotoxicity against human LOXIMVI cells after 48 hrs by sulforhodamine B assay

cells [42] = conditions: Homo sapiens, MCF7, 48 h
Description: Cytotoxicity against human MCF7 cells after 48 hrs by sulforhodamine B assay

cells [43] = conditions: Homo sapiens, NCI-H226, 48 h
Description: Cytotoxicity against human NCI-H226 cells after 48 hrs by sulforhodamine B assay

cells [44] = conditions: Homo sapiens, SK-OV-3, 48 h
Description: Cytotoxicity against human SKOV3 cells after 48 hrs by sulforhodamine B assay

[45] = Cytotoxicity against human SR cells after 48 hrs by sulforhodamine B assay; format: functional
[46] = Cytotoxicity against human A549/ATCC cells after 48 hrs by sulforhodamine B assay; format: functional; conditions: A549, 48 h
cells [47] = conditions: Homo sapiens, U-251, 48 h
Description: Cytotoxicity against human U251 cells after 48 hrs by sulforhodamine B assay

[48] = Cytotoxicity against human NCI-ADR-RES cells after 48 hrs by sulforhodamine B assay; format: functional
cells [49] = conditions: Homo sapiens, SN12C, 48 h
Description: Cytotoxicity against human SN12C cells after 48 hrs by sulforhodamine B assay

cells [50] = conditions: Homo sapiens, RPMI-8226, 48 h
Description: Cytotoxicity against human RPMI8226 cells after 48 hrs by sulforhodamine B assay

cells [51] = conditions: Homo sapiens, HT-29, 48 h
Description: Cytotoxicity against human HT-29 cells after 48 hrs by sulforhodamine B assay

cells [52] = conditions: Homo sapiens, EKVX, 48 h
Description: Cytotoxicity against human EKVX cells after 48 hrs by sulforhodamine B assay

cells [53] = conditions: Homo sapiens, MDA-MB-435, 48 h
Description: Cytotoxicity against human MDA-MB-435 cells after 48 hrs by sulforhodamine B assay

cells [54] = conditions: Homo sapiens, OVCAR-4, 48 h
Description: Cytotoxicity against human OVCAR4 cells after 48 hrs by sulforhodamine B assay

cells [55] = conditions: Homo sapiens, NCI-H23, 48 h
Description: Cytotoxicity against human NCI-H23 cells after 48 hrs by sulforhodamine B assay

[56] = Cytotoxicity against human Hs 578T cells after 48 hrs by sulforhodamine B assay; format: functional
cells [57] = conditions: Homo sapiens, SF-268, 48 h
Description: Cytotoxicity against human SF268 cells after 48 hrs by sulforhodamine B assay

cells [58] = conditions: Homo sapiens, HL-60, 48 h
Description: Cytotoxicity against human HL-60(TB) cells after 48 hrs by sulforhodamine B assay

cells [59] = conditions: Homo sapiens, RXF 393, 48 h
Description: Cytotoxicity against human RXF393 cells after 48 hrs by sulforhodamine B assay

cells [60] = conditions: Homo sapiens, BT-549, 48 h
Description: Cytotoxicity against human BT549 cells after 48 hrs by sulforhodamine B assay

cells [61] = conditions: Homo sapiens, SNB-19, 48 h
Description: Cytotoxicity against human SNB19 cells after 48 hrs by sulforhodamine B assay

cells [62] = conditions: Homo sapiens, OVCAR-5, 48 h
Description: Cytotoxicity against human OVCAR5 cells after 48 hrs by sulforhodamine B assay

cells [63] = conditions: Homo sapiens, T47D, 48 h
Description: Cytotoxicity against human T47D cells after 48 hrs by sulforhodamine B assay

cells [64] = conditions: Homo sapiens, M14, 48 h
Description: Cytotoxicity against human M14 cells after 48 hrs by sulforhodamine B assay

cells [65] = conditions: Homo sapiens, SK-MEL-2, 48 h
Description: Cytotoxicity against human SK-MEL-2 cells after 48 hrs by sulforhodamine B assay

cells [66] = conditions: Homo sapiens, TK-10, 48 h
Description: Cytotoxicity against human TK10 cells after 48 hrs by sulforhodamine B assay

cells [67] = conditions: Homo sapiens, UACC-257, 48 h
Description: Cytotoxicity against human UACC257 cells after 48 hrs by sulforhodamine B assay

cells [68] = conditions: Homo sapiens, K562, 48 h
Description: Cytotoxicity against human K562 cells after 48 hrs by sulforhodamine B assay

cells [69] = conditions: Homo sapiens, OVCAR-3, 48 h
Description: Cytotoxicity against human OVCAR3 cells after 48 hrs by sulforhodamine B assay

COc1c(C)cnc(Cn2cc(Cc3ccccc3)c3c(Cl)nc(N)nc32)c1C
inhibition [1]: Dose-dependent effect | inhibition [2]: Dose-dependent effect | inhibition [3]: Dose-dependent effect | inhibition [4]: Dose-dependent effect | inhibition [5]: Dose-dependent effect | IC50 [6]: 36 nM

COc1ccc(Cc2cn(Cc3ncc(C)c(OC)c3C)c3nc(N)nc(Cl)c23)cc1
inhibition at 10 µM [7]: 69.4% | inhibition at 72 h, 10 µM [8]: 10.1% | inhibition at 10 µM [9]: 80.1% | IC50 [6]: 94 nM | inhibition at 10 µM [10]: 80.9%

COc1c(C)cnc(Cn2cc(Cc3cccc(C)c3)c3c(Cl)nc(N)nc32)c1C
IC50 [6]: 51 nM

COc1cc(Cc2cn(Cc3ncc(C)c(OC)c3C)c3nc(N)nc(Cl)c23)ccc1Br
IC50 [6]: 79 nM

Nc1nc(Cl)c2c(Cc3ccccc3)cn(Cc3cc4c(cc3I)OCO4)c2n1
inhibition at 10 µM [7]: 63.8% | inhibition at 72 h, 10 µM [8]: 36.2% | inhibition at 10 µM [9]: 74% | IC50 [6]: 750 nM | inhibition at 10 µM [10]: 74.5%

COc1c(C)cnc(Cn2cc(Cc3ccc(C)cc3)c3c(Cl)nc(N)nc32)c1C
IC50 [6]: 58 nM

Nc1nc(Cl)c2c(Cc3ccccc3)cn(Cc3ccc4c(c3)OCO4)c2n1
inhibition at 10 µM [7]: 4.32% | inhibition at 72 h, 10 µM [8]: 11.2% | inhibition at 10 µM [9]: 54% | inhibition at 10 µM [10]: 48.8%

COc1c(C)cnc(Cn2cc(Cc3ccc(Cl)cc3)c3c(Cl)nc(N)nc32)c1C
IC50 [6]: 48 nM

Nc1nc(Cl)c2c(Cc3ccccc3)cn(Cc3cc4c(cc3Br)OCO4)c2n1
inhibition at 10 µM [7]: 40.9% | inhibition at 72 h, 10 µM [8]: 20.7% | inhibition at 10 µM [9]: 69.9% | IC50 [6]: 650 nM | inhibition at 10 µM [10]: 70.4%

COc1c(C)cnc(Cn2cc(Cc3cccc(C(F)(F)F)c3)c3c(Cl)nc(N)nc32)c1C
IC50 [6]: 8700 nM

COc1c(C)cnc(Cn2cnc3c(Cl)nc(N)nc32)c1C [BIIB021]
inhibition at 10 µM [7]: 86.2% | inhibition at 72 h, 10 µM [8]: 51.3% | inhibition at 10 µM [9]: 84.8% | inhibition at 10 µM [10]: 71.9%

CC(C)NCCCn1c(Sc2cc3c(cc2I)OCO3)nc2c(N)ncnc21 [PU-H71]
GI50 (cells [11]): 59 nM | GI50 [12]: 83 nM | GI50 (cells [13]): 63 nM | GI50 (cells [14]): 282 nM | GI50 (cells [15]): 437 nM | GI50 (cells [16]): 288 nM | GI50 (cells [17]): 851 nM | GI50 (cells [18]): 525 nM | GI50 (cells [19]): 91 nM | GI50 (cells [20]): 48 nM | GI50 (cells [21]): 479 nM | GI50 (cells [22]): 724 nM | GI50 (cells [23]): 132 nM | GI50 (cells [24]): 123 nM | GI50 (cells [25]): 437 nM | inhibition at 10 µM [7]: 65.3% | GI50 (cells [26]): 59 nM | GI50 (cells [27]): 263 nM | GI50 (cells [28]): 59 nM | GI50 (cells [29]): 89 nM | GI50 (cells [30]): 145 nM | GI50 (cells [31]): 372 nM | GI50 (cells [32]): 417 nM | GI50 (cells [33]): 58 nM | GI50 (cells [34]): 324 nM | GI50 (cells [35]): 48 nM | GI50 (cells [36]): 427 nM | GI50 (cells [37]): 457 nM | GI50 (cells [38]): 513 nM | GI50 (cells [39]): 295 nM | GI50 (cells [40]): 155 nM | GI50 (cells [41]): 79 nM | GI50 (cells [42]): 46 nM | GI50 (cells [43]): 759 nM | GI50 (cells [44]): 45 nM | inhibition at 10 µM [9]: 70.5% | GI50 [45]: 60 nM | GI50 [46]: 87 nM | GI50 (cells [47]): 129 nM | GI50 [48]: 3630 nM | GI50 (cells [49]): 174 nM | GI50 (cells [50]): 1510 nM | GI50 (cells [51]): 38 nM | GI50 (cells [52]): 2510 nM | GI50 (cells [53]): 91 nM | GI50 (cells [54]): 33100 nM | GI50 (cells [55]): 89 nM | GI50 [56]: 1290 nM | GI50 (cells [57]): 2090 nM | GI50 (cells [58]): 63 nM | GI50 (cells [59]): 759 nM | GI50 (cells [60]): 1510 nM | GI50 (cells [61]): 646 nM | GI50 (cells [62]): 3020 nM | GI50 (cells [63]): 155 nM | inhibition at 10 µM [10]: 78.4% | GI50 (cells [64]): 234 nM | GI50 (cells [65]): 355 nM | GI50 (cells [66]): 162 nM | GI50 (cells [67]): 309 nM | GI50 (cells [68]): 71 nM | GI50 (cells [69]): 589 nM

C=CCNC1=C2C[C@@H](C)C[C@H](OC)[C@H](O)[C@@H](C)/C=C(\C)[C@H](OC(N)=O)[C@@H](OC)/C=C\C=C(/C)C(=O)NC(=CC1=O)C2=O [TANESPIMYCIN]
inhibition at 10 µM [7]: 88.9% | inhibition at 72 h, 10 µM [8]: 65.5% | inhibition at 10 µM [9]: 79.7% | inhibition at 10 µM [10]: 74.4%

— ChEMBL document CHEMBL3872253, “Synthesis and in vitro antiproliferative activity of C5-benzyl substituted 2-amino-pyrrolo[2,3-d]pyrimidines as potent Hsp90 inhibitors” (Bioorg Med Chem Lett, 2017)
